Measured values as given in ChEMBL document CHEMBL3112567, “Novel GlyT1 inhibitor chemotypes by scaffold hopping. Part 1: development of a potent and CNS penetrant [3.1.0]-based lead” (Bioorg Med Chem Lett, 2014).
Blank lines part the entries; values can stand above or below the compound they belong to. The source made the active and inactive calls. The calls are words filed in the database; no cut-off is given here.

Tests used:
[1] = target: T1, Sodium- and chloride-dependent glycine transporter 1 (Homo sapiens, UniProt P48067); test: Inhibition of GlyT1 (unknown origin) assessed as inhibition of [14C]glycine uptake
T1 sequence (P48067 whole entry): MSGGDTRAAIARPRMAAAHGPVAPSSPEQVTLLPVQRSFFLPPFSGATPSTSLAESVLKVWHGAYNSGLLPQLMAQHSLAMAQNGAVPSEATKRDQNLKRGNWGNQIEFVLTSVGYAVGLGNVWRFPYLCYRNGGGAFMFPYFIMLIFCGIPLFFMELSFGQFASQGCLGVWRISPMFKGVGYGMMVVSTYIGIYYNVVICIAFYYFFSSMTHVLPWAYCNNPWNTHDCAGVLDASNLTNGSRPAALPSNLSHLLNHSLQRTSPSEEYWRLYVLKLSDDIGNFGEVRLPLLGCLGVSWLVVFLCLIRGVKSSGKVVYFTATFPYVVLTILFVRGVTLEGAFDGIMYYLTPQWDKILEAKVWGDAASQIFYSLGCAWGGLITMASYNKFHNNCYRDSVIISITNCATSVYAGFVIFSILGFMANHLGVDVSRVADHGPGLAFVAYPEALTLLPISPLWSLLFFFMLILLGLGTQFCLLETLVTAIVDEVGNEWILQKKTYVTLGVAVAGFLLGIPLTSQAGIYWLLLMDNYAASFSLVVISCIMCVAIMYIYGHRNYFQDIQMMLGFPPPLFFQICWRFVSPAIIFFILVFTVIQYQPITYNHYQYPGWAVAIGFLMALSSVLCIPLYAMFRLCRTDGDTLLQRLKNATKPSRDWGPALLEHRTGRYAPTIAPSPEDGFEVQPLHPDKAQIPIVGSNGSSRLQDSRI

[2] = target: T2, Sodium- and chloride-dependent glycine transporter 2 (Homo sapiens, UniProt Q9Y345); test: Inhibition of GlyT2 (unknown origin)
T2 sequence (Q9Y345 whole entry): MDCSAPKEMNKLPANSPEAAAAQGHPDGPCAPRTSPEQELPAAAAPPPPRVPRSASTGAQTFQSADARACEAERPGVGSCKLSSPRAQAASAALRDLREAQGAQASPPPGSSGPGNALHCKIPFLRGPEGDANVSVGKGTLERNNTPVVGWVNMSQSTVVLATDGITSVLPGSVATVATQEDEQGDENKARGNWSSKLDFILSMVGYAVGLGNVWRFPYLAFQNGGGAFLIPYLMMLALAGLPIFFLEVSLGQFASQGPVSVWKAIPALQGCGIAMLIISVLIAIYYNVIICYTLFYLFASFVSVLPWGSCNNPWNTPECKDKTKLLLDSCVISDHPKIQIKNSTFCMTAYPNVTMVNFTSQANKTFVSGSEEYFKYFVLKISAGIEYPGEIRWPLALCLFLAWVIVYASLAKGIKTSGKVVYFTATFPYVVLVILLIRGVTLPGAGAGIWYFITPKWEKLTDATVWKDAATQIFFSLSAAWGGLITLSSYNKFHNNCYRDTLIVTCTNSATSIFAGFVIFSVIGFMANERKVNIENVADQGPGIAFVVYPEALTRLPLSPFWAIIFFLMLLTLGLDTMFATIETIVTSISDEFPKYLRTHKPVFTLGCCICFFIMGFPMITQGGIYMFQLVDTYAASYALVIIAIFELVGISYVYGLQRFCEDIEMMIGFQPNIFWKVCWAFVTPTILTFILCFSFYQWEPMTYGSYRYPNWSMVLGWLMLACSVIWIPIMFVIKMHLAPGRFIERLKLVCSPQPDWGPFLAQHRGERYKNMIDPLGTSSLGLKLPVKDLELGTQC

[3] = Partitioning coefficient, ratio of drug uptake from rat brain to plasma at 10 mg/kg, po; format: ADME, organism-based; design: dose 10 mg/kg, route oral
Plasma [4] = test: (§1) Fraction unbound in human plasma; format: ADME, cell-free
Cytochrome P450 3A4 = Cytochrome P450 3A4 (Homo sapiens, UniProt P08684); test: Inhibition of CYP3A4 (unknown origin); format: ADME
Cytochrome P450 2C9 = Cytochrome P450 2C9 (Homo sapiens, UniProt P11712); test: Inhibition of CYP2C9 (unknown origin); format: ADME
Rattus norvegicus [5] = test: Toxicity in rat schizophrenia model assessed as effect on basal startle amplitude at 30 mg/kg, po; format: organism-based; design: dose 30 mg/kg, route oral; settings: in vivo
Rattus norvegicus [6] = test: Antischizophrenic activity in rat schizophrenia model assessed as inhibition of […] to […] dB intensity-induced prepulse at 30 mg/kg, po; format: functional, organism-based; design: dose 30 mg/kg
Plasma [7] = test: AUC (0 to 6 hrs) in rat plasma at 10 mg/kg, po; format: ADME, organism-based; design: time < 6 hr, dose 10 mg/kg, route oral; settings: in vivo
[8] = AUC (0 to 6 hrs) in rat brain at 10 mg/kg, po; format: ADME, organism-based; design: time < 6 hr, dose 10 mg/kg, route oral
[9] = Partitioning coefficient, ratio of drug uptake from rat brain to plasma at 10 mg/kg, sc; format: ADME, organism-based; design: dose 10 mg/kg, route subcutaneous
[10] = AUC (0 to 6 hrs) in rat brain at 10 mg/kg, sc; format: ADME, organism-based; design: time < 6 hr, dose 10 mg/kg, route subcutaneous
Plasma [11] = test: AUC (0 to 6 hrs) in rat plasma at 10 mg/kg, sc; format: ADME, organism-based; design: time < 6 hr, dose 10 mg/kg, route subcutaneous; settings: in vivo
[12] = Clearance in rat at 0.5 mg/kg, iv; format: ADME, organism-based; design: dose 0.5 mg/kg, route intravenous; settings: in vivo
[13] = Half life in rat at 0.5 mg/kg, iv; format: ADME, organism-based; design: dose 0.5 mg/kg, route intravenous; settings: in vivo
Plasma [14] = test: Fraction unbound in rat plasma; format: ADME, cell-free
Plasma [15] = test: Metabolic stability in rat plasma after 4 hrs; format: ADME, cell-free
Cytochrome P450 2D6 = Cytochrome P450 2D6 (Homo sapiens, UniProt P10635); test: Inhibition of CYP2D6 (unknown origin); format: ADME
Cytochrome P450 1A2 = target: T3, Cytochrome P450 1A2 (Homo sapiens, UniProt P05177); test: Inhibition of CYP1A2 (unknown origin); format: ADME
T3 sequence (P05177 whole entry): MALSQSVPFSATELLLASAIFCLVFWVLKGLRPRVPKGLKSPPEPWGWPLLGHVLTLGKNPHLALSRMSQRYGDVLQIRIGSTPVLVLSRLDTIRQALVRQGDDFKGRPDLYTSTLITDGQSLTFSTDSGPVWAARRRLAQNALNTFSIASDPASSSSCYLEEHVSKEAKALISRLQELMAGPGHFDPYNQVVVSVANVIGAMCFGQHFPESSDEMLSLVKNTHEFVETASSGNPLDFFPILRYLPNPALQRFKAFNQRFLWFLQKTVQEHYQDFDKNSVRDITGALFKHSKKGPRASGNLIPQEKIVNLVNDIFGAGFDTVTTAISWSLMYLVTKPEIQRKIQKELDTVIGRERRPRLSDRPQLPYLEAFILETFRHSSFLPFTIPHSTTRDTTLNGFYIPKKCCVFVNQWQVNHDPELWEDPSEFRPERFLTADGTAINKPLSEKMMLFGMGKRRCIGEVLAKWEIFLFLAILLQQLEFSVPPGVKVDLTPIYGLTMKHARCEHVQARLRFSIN

[16] = as §1; format: ADME, cell-free
[17] = target: T4, Sodium- and chloride-dependent glycine transporter 1 (Homo sapiens) (UniProt P48067); test: Competitive inhibition of GlyT1 (unknown origin) at 40 nM by Eadie-Hofstee plot analysis in presence of [14C]-glycine
T4 sequence (whole entry): T1 sequence (P48067 whole entry)

Cytochrome P450 2C9, sequence (P11712 whole entry): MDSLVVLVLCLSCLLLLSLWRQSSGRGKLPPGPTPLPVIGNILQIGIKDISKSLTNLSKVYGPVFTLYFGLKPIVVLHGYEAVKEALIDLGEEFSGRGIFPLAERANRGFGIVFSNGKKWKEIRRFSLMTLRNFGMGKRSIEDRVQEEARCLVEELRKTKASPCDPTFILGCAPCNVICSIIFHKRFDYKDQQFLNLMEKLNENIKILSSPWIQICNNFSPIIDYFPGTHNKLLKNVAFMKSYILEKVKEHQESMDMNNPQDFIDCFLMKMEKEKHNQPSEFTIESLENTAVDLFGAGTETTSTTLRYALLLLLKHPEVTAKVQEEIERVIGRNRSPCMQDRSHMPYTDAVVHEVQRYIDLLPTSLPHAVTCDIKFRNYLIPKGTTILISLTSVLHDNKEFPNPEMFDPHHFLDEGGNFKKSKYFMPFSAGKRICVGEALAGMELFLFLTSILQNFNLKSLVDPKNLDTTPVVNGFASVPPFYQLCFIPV
Cytochrome P450 2D6, sequence (P10635 whole entry): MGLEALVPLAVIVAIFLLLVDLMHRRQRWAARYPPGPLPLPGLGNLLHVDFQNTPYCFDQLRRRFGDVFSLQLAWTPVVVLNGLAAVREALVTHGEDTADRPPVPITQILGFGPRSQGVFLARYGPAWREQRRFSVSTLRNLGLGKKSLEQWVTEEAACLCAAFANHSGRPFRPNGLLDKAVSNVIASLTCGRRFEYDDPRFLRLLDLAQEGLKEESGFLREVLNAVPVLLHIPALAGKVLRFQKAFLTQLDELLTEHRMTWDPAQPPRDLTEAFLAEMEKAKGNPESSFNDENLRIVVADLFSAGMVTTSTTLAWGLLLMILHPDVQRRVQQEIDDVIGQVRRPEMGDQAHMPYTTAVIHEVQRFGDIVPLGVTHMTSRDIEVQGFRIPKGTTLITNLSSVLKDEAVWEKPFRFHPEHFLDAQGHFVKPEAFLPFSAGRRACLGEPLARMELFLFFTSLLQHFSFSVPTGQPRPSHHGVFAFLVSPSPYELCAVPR
Cytochrome P450 3A4, sequence (P08684 whole entry): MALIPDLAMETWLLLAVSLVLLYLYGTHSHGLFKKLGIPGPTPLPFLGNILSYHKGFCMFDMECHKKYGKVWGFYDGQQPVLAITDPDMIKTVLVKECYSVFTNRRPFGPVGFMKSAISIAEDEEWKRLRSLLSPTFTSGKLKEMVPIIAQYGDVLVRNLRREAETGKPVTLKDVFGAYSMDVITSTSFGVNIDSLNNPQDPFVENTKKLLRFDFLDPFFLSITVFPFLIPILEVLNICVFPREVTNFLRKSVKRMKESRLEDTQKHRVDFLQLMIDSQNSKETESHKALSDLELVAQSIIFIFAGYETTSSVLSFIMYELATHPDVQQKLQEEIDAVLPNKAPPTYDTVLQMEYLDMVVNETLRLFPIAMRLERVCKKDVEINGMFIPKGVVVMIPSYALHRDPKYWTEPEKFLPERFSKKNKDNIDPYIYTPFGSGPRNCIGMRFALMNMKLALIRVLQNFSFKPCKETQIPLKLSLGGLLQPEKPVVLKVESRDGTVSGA

SMILES: CCS(=O)(=O)N1C[C@@H]2[C@H](C1)[C@@]2(CNC(=O)c1ccc(Cl)cc1Cl)CC1CC1
IC50 [1]: 1300 nM
IC50 [2]: > 30000 nM

IC50 [1]: 230 nM
IC50 [2]: > 30000 nM
SMILES: O=C(NC[C@]1(CC2CC2)[C@@H]2CN(S(=O)(=O)CC3CC3)C[C@@H]21)c1ccc(Cl)cc1Cl

Kp ([3]; brain): 0.3
IC50 [1]: 100 nM
Fu (Plasma [4]): 2%
SMILES: Cn1cnc(S(=O)(=O)N2C[C@@H]3[C@H](C2)[C@@]3(CNC(=O)c2cc(Cl)cc(Cl)c2)CC2CC2)c1

Kp ([3]; brain and plasma, read-out: Kp): 0.7
IC50 [1]: 64 nM
Fu (Plasma [4]): 4%
SMILES: Cn1cnc(S(=O)(=O)N2C[C@@H]3[C@H](C2)[C@@]3(CNC(=O)c2cccc(C(F)(F)F)c2)CC2CC2)c1

IC50 [1]: 360 nM
IC50 [2]: > 30000 nM
SMILES: CCCS(=O)(=O)N1C[C@@H]2[C@H](C1)[C@@]2(CNC(=O)c1ccc(Cl)cc1Cl)CC1CC1

IC50 [1]: > 10000 nM
IC50 [2]: > 30000 nM
SMILES: O=C(NC[C@]1(CC2CC2)[C@@H]2CN(S(=O)(=O)c3ccccc3)C[C@@H]21)c1ccc(Cl)cc1Cl

IC50 (Cytochrome P450 3A4): > 10000 nM
IC50 (Cytochrome P450 2C9): > 10000 nM
IC50 [1]: 2.4 nM
SMILES: CCCS(=O)(=O)N1CCC(c2ccccc2)([C@H](C)NC(=O)c2ccc(Cl)cc2Cl)CC1

SMILES: Cn1cnc(S(=O)(=O)N2C[C@@H]3[C@H](C2)[C@@]3(CNC(=O)c2ccccc2C(F)(F)F)CC2CC2)c1
Activity (Rattus norvegicus [5]): Non-toxic
inhibition (Rattus norvegicus [6]): Active
Kp ([3]; brain): 0.83
AUC (Plasma [7]): 1.156 µM·h
AUC(0-t) at 6 h [8]: 0.956 µM·h
Kp [9]: 0.44
AUC(0-t) at 6 h [10]: 0.431 µM·h
AUC (Plasma [11]): 0.976 µM·h
clearance [12]: 31 mL/min/kg
half-life [13]: 14.5 min
Fu (Plasma [14]): 44.8%
Stability (Plasma [15]): Stable
IC50 (Cytochrome P450 2D6): > 30000 nM
IC50 (Cytochrome P450 1A2): > 30000 nM
IC50 (Cytochrome P450 2C9): > 30000 nM
IC50 [1]: 5 nM
Fu (Plasma [4]): 7%

IC50 (Cytochrome P450 2D6): > 30000 nM
IC50 (Cytochrome P450 3A4): > 30000 nM
IC50 (Cytochrome P450 1A2): > 30000 nM
IC50 (Cytochrome P450 2C9): > 30000 nM
IC50 [1]: 185 nM
fraction unbound [16]: 0.076
SMILES: Cn1cnc(S(=O)(=O)N2C[C@@H]3[C@H](C2)[C@@]3(CNC(=O)c2ccccc2C(F)(F)F)c2ccccn2)c1

inhibition [17]: Active
Kp ([3]; brain): 0.5
IC50 [1]: 28 nM
Fu (Plasma [4]): 8%
SMILES: Cn1cnc(S(=O)(=O)N2C[C@@H]3[C@H](C2)[C@@]3(CNC(=O)c2c(Cl)cccc2Cl)CC2CC2)c1

Kp ([3]; brain and plasma, read-out: Kp): 0.3
fraction unbound [16]: 0.05
SMILES: Cn1cnc(S(=O)(=O)N2C[C@@H]3[C@H](C2)[C@@]3(CNC(=O)c2ccc(Cl)cc2Cl)CC2CC2)c1

IC50 [1]: 5500 nM
IC50 [2]: > 30000 nM
SMILES: CCCCS(=O)(=O)N1C[C@@H]2[C@H](C1)[C@@]2(CNC(=O)c1ccc(Cl)cc1Cl)CC1CC1
